Measurements as given in PMC10241923 (British Journal of Cancer, 2023).

Target: CDK9 (Homo sapiens, UniProt P50750)
Experiment: CeTSA isothermal dose-response at […] °C in intact LNCaP cells, immunoblot
Assay type: cell-based

Chain of CDK9 (P50750 whole entry): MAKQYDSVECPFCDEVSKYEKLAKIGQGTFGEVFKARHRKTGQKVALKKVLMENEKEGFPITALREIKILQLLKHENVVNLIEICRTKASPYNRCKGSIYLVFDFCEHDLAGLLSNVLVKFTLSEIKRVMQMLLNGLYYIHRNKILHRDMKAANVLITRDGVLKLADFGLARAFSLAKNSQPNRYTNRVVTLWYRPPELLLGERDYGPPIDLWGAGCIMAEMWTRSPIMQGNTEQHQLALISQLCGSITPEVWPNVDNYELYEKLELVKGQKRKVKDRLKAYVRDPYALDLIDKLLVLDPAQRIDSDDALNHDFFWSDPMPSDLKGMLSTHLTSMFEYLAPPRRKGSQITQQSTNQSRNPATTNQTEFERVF

Which “CeTSA isothermal dose-response at 54 °C in intact LNCaP cells, immunoblot” value does the source give for CC(C)c1cnn2c(NCc3ccccc3)cc(NC[C@H]3CCNC[C@@H]3O)nc12 [CT7001] here?
The value was “has a degree of engagement also with CDK2 and CDK9 at higher concentrations”.
